Results on 92 compounds are retold here after a melting point compilation (Tetko et al.; mined from patent text by program, amines drawn as free bases though some values may be those of a salt).

One may read the melting point as the temperature of the solid-liquid transition. Turning to `CCn1cc(C(=O)NCc2ccc(Cl)cc2)c(=O)c2cc(CN(C)C[C@@H](O)c3ccccc3)sc21`, the melting point was in the range of 100 to 102 °C.

Regarding `C#CCN1CC(=O)N(c2ccc(Cl)cc2C)C1=S`, the melting point is 99 to 102 °C.

For the compound `OC(COc1ccccc1)c1ccccc1` (configuration not stated), the melting point was 61 to 62 °C.

The compound `Cn1ccc(COc2nn3c(-c4ccccc4F)nnc3cc2C2CCC2)n1` came in with a melting point of 184 to 186 °C.

With `CC(=O)c1cccc(Oc2ncccc2C(=O)NCc2ccc(S(N)(=O)=O)cc2)c1`, the melting point lay within 162 to 164 °C.

`CCCCCCOc1ccc2cc([C@H]3CC[C@H](CCCCCC)CC3)ccc2c1` came in with a melting point of 48 °C.

On to `O=C(OCC1CC1)c1ncn2c1[C@@H]1CCCN1C(=O)c1c(Cl)cccc1-2`, for which the melting point was in the range of 195 to 196 °C.

`Clc1ccc(-c2nc3n(c2Cl)CCCC3)c(Cl)c1`: the melting point was in the range of 99 to 101 °C.

The compound `CC(=O)OCc1cc(=O)c(Oc2ccc(F)cc2F)c(-c2ccc(S(C)(=O)=O)cc2)o1` displayed a melting point of 175 °C.

In turn, `NCC1COc2cc(F)cc(-c3ccccc3Cl)c2N1` (configuration not stated) yielded a melting point of 86 °C.

The compound `CC(=O)Nc1ccc(OC(F)(F)F)cc1-c1ccccc1` registered a melting point of 94 °C.

In turn, `CN(C)OC(=O)c1c(O)cccc1Cl` registered a melting point of 104 to 106 °C.

In turn, `CC(O)(COc1ccc(C(=O)c2ccccc2)cc1)C(F)(F)F` (configuration not stated) showed a melting point of 70 to 73 °C.

As to `CCCCCCCCCCCCOC(=O)COCC(=O)O`, the melting point was 57 to 59 °C.

`O=Cc1ccc([N+](=O)[O-])cn1`: the melting point was in the range of 66 to 67 °C.

Compound `O=C(N[C@H](Cc1ccc(C(F)(F)F)cc1)[C@@H](O)c1ccc(F)cc1)C1CCCCC1` (racemic) gave a melting point of 203 to 204 °C.

Take `CC1(C(=O)O)CCc2onc(-c3ccc(Cl)cc3)c2CC1` (configuration not stated): the melting point worked out at 163 °C.

As for `OCCCCCCCCCCCCCCC(O)CNCCO` (configuration not stated), the melting point came out at 103 °C.

`N#Cc1cccc(C2=Nc3cc(CO)c(C#Cc4ccccc4)cc3NC(=O)C2)c1` displayed a melting point greater than 255 °C.

The compound `CC(C)=CCS(=O)(=O)c1ccc(C)cc1` came in with a melting point of 71 to 72 °C.

`Clc1nc(Br)cnc1N1CCNCC1` displayed a melting point of 114 to 115 °C.

On to `CCOCC(=NNc1ccc(C(F)(F)F)cc1)C(=O)NCc1ccc(Cl)nc1`, for which the melting point lay in the range of 98 to 99 °C.

Take `Nc1nc2c(s1)CCN(CC=Cc1cccc(F)c1)CC2`: the melting point was in the range of 128 to 132 °C.

As to `O=C(O)c1nn(-c2ccc(Cl)cc2Cl)c(-c2ccc(Cl)cc2)c1COCCO`, the melting point came to 182 °C.

`CC(C)c1c[nH]c(=O)[nH]c1=O` came in with a melting point of 284 to 286 °C.

Turning to `OCc1cc(Nc2nc(-c3ccccc3)nc3ccccc23)[nH]n1`, the melting point was in the range of 238 to 239 °C.

On to `CCOC(=O)c1c(N2CCC(N(C)C)CC2)c2cc(C)ccc2n(Cc2ccccc2)c1=O`, for which the melting point was greater than 60 °C.

`COc1ncc(C2Nc3ccccc3C(=O)N2c2cccc(C(F)(F)F)c2)cc1Br` (configuration not stated): the melting point lay in the range of 192 to 193 °C.

The compound `CC(C)CCN1C(=O)C(NC(=O)Oc2ccccc2)C(=O)N(c2ccccc2F)c2ccccc21` (configuration not stated) returned a melting point of 226 to 227 °C.

With `CSc1sc(-c2ccccn2)c2c1C(=O)CC(C)(C)C2`, the melting point lay within 217 to 220 °C.

Turning to `Cc1cccc(C)c1NC(=O)CCCSc1cc(C(C)(C)C)c(O)c(C(C)(C)C)c1`, the melting point worked out at 140 °C.

With `Cc1cccc(C#C[C@@]2(O)CCC[C@@H](NC(=O)c3ccco3)C2)c1`, the melting point lay within 139 to 142 °C.

As for `COc1ccc2nc(NC(=O)C(CC3CCCC3)c3ccc(S(=O)(=O)NC4CC4)cc3)sc2n1` (configuration not stated), the melting point was 235 to 237 °C.

`COC(=O)Cc1cc(O)nn1C` had a melting point of 147 to 148 °C.

On to `O=C1c2cnc(N3CCN(Cc4ccccc4)CC3)nc2CN1C1CCCCC1`, for which the melting point lay within 176 to 178 °C.

For the compound `CCc1[nH]c2cc(C)c(Oc3ccc(OC(F)(F)F)cc3)cc2c(=O)c1C`, the melting point lay in the range of 281 to 283 °C.

In turn, `COc1ccc(C2(COc3cccc4cc(NS(=O)(=O)C(F)(F)F)ccc34)N=CNO2)cc1` (configuration not stated) registered a melting point of 146 to 148 °C.

As for `O=CC=C(c1ccccc1F)c1ccccc1F`, the melting point fell in the range of 75 to 77 °C.

In the case of `CCOc1c(NC(C)(C)CC)c(=O)c1=O`, the melting point was in the range of 78 to 80 °C.

Take `CC(C)=CC(n1cncn1)C(C)(O)C(C)(C)C` (configuration not stated): the melting point lay in the range of 115 to 116 °C.

Turning to `Cn1c(=O)c(-c2c(Cl)cccc2Cl)cc2cnc(Nc3cccc(CO)c3)nc21`, the melting point is 215 to 217 °C.

`CC(C)CC1(C(CCNC(=O)c2ccc(F)c(F)c2)C(=O)NO)CCN(CCc2ccccc2)C1=O` (configuration not stated): the melting point lay in the range of 132 to 134 °C.

`Clc1ccc(C(Br)Br)c(C(Br)Br)c1`: the melting point is 108 to 111 °C.

For `N#CN=C(Nc1ccncc1)NC1CCCCCCC1`, the melting point fell in the range of 198 to 199 °C.

For the compound `COC(=O)C1=NNC(C)=C(C(=O)OC)C1c1ccccc1[N+](=O)[O-]` (configuration not stated), the melting point was in the range of 203 to 205 °C.

`O=C(c1ccnc(Cl)c1)N1CC(c2ccc(F)cc2)C2(CCN(Cc3ccccc3)CC2)C1` (configuration not stated) gave a melting point of 70 to 72 °C.

Turning to `Oc1ccc2c(c1)CC(NCC(O)c1ccccc1)CC2` (configuration not stated), the melting point is 157 to 159 °C.

As for `O=c1[nH]c2cc(Cl)ccc2c(=O)n1-c1ccccc1`, the melting point was greater than 300 °C.

Turning to `N#CCc1cccc2c(C3CCCC3)nccc12`, the melting point lay in the range of 99.4 to 100 °C.

`C#Cc1cccc(Nc2ncnc3c2ccn3CCOC)c1` returned a melting point of 240 to 241 °C.

The compound `CC(C)(C)OC(=O)C(=[N+]=[N-])C(=O)CO` had a melting point of 35 °C.

Consider `CC(C)N1C(=O)NC(c2ccc3c(c2)OCO3)c2cc3c(cc21)OCCO3` (configuration not stated), for which the melting point was in the range of 197 to 200 °C.

As to `Cn1c(COc2ccc(C=C3SC(=O)NC3=O)cc2)nc2ccc(Sc3cc(C(C)(C)C)c(O)c(C(C)(C)C)c3)cc21`, the melting point is 247 to 249 °C.

In the case of `CC1Oc2ccc(CN3CCN(CC(=O)NC4CC4)CC3)cc2NC1=O` (configuration not stated), the melting point was in the range of 180 to 181 °C.

Compound `COc1ccc2c(c1)C(C(=O)N(Cc1ccc(Br)cc1)c1ccc(C(C)C)cc1)CCC2` (configuration not stated) had a melting point of 85 °C.

For `O=C1NC(=O)C(Cc2ccc(OCCON=Cc3ccccn3)cc2)S1` (configuration not stated), the melting point is 161 to 163 °C.

`O=C(O)c1ccc(OCCCCO)cc1`: the melting point came out at 124 °C.

Take `CN(C)C1(c2ccccc2)CCC(=CC(=O)NCCc2ccccc2)CC1` (configuration not stated): the melting point was 153 to 155 °C.

For `O=C(NC12CC3CC(CC(C3)C1)C2)c1ncn(-c2ccccc2)c1Br`, the melting point lay in the range of 229 to 232 °C.

Regarding `c1cc(C2=NOCCS2)ccn1`, the melting point was 80 to 82 °C.

In turn, `CCCCCCCCCCCC(=O)N(N=C=S)C(CCCCN)C(=O)O` (configuration not stated) returned a melting point of 37 to 39 °C.

As to `COc1ccc2cc(C#N)ccc2n1`, the melting point was in the range of 163 to 165 °C.

`Cc1c(NC(=O)c2ccc(-c3ccc(F)cc3)cc2)ccc2cc(CN3CCCCC3)cnc12` gave a melting point of 188 to 190 °C.

In turn, `CCCc1c(OCCCCCc2nnnn2C)ccc(C(C)=O)c1O` registered a melting point of 72 to 75 °C.

On to `CC(=O)NC(C)(C)c1ccc(CN2CCN(c3ncccn3)CC2)cc1`, for which the melting point lay in the range of 137 to 138 °C.

Compound `COc1ccc(-c2cc3ncc(C#N)c(Nc4ccc(Sc5nccn5C)c(Cl)c4)c3cc2OC)cc1` registered a melting point of 227 to 229 °C.

In the case of `CN(C)c1ccc(N(c2ccccc2)C2(c3ccc(N(C)C)cc3)OC(=O)c3cc(N(C)C)ccc32)cc1` (configuration not stated), the melting point was in the range of 163 to 164 °C.

In the case of `CC(C)N1CCN(C(=O)OC2C3=C(SCCS3)C(=O)N2c2ccc(Cl)cn2)CC1` (configuration not stated), the melting point lay in the range of 130 to 135 °C.

The compound `C[C@@H](S[C@H]1CO[C@H](/C=C/C=C/c2ccc(OCC(F)(F)C(F)F)cc2)OC1)[C@](O)(Cn1cncn1)c1ccc(F)cc1F` showed a melting point of 75 to 85 °C.

`Oc1cccc(/C=C/c2ccccc2)c1` registered a melting point of 125 to 126 °C.

The compound `O=Cc1ccc2cc(C=O)ccc2c1` returned a melting point of 173 to 174 °C.

With `CCCc1ccc(Oc2ccc3c(c2)OC(C(F)(F)F)C(C(=O)O)=C3)cc1` (configuration not stated), the melting point lay within 144 to 146 °C.

The compound `CN(C)NC(=O)N(O)C1c2ccccc2Oc2ccccc21` displayed a melting point of 196 to 198 °C.

In the case of `CCOC(=O)c1cc(=O)c2cc(OCCC(C)C)ccc2s1`, the melting point fell in the range of 83 to 84 °C.

For `COC(=O)NC12CC=CCC1CCc1ccc(OC)cc12` (configuration not stated), the melting point is 120 to 122 °C.

For the compound `COc1ccc2c(c1)CCC1C2CCC2(C)C(NC=O)CCC12` (configuration not stated), the melting point lay within 252 to 253 °C.

The compound `COc1ccc(C(=CC(=O)N2CCOCC2)c2ccc([N+](=O)[O-])cc2)cc1OC` displayed a melting point of 149 to 163 °C.

`CCC(=O)Oc1cc(OC)cc(OC)c1C(=O)C=Cc1ccc(C)o1` yielded a melting point of 72.5 °C.

With `OCc1cc(Cl)c(Br)cn1`, the melting point was 109 to 110 °C.

As for `Cc1ccccc1S(=O)(=O)Nc1onc(C)c1Br`, the melting point lay within 93 to 96 °C.

`CC(C)(CN)c1ccc(C(=O)Nc2cn3cc(-n4ccnc4)ccc3n2)cc1` registered a melting point of 258 to 260 °C.

Compound `O=C(CN1C(=O)c2ccccc2C1=O)Nc1ccccc1Cl` gave a melting point of 250 °C.

As to `N#Cc1ccc(CCC(=O)c2ccc(C#N)cc2)cc1`, the melting point lay in the range of 149 to 152 °C.

As to `CCOC(=O)n1c(=O)[nH]c2cc(OC)ccc21`, the melting point lay in the range of 180 to 183 °C.

On to `CCOC(=O)Nc1ccc(C(c2ccccc2)n2ccnc2)cc1CO` (configuration not stated), for which the melting point stood at 143 °C.

`CN1C(=O)N(Cc2ccccc2)CC1(CCO)c1ccc(Cl)c(Cl)c1` (configuration not stated) displayed a melting point of 118 °C.

`CC(C)N=c1[nH]c2ccc(Cl)cc2c2nc(-c3ccco3)nn12` yielded a melting point of 140 to 141 °C.

In turn, `CC(C)CC1(C(CCN2C(=O)c3ccc(N)cc3C2=O)C(=O)NO)CCN(CCc2ccccc2)C1=O` (configuration not stated) showed a melting point of 187 to 188 °C.

`O=C1CCCC2(c3ccccc3)NCCCN12` (configuration not stated) yielded a melting point of 120 °C.

`COc1ccc(-c2c(-c3ccccc3)nc3n2Cc2ccccc2C3)cc1` had a melting point of 183 to 185 °C.

Take `O=C1CCCCC1C(C[N+](=O)[O-])c1ccc(Cl)c(Cl)c1` (racemic): the melting point was in the range of 109 to 110 °C.

For `COc1ccccc1CC(=O)NCc1cccs1`, the melting point was 84 °C.
